Source: US20090239880A1, “COMBINATIONS OF MONOAMINE REUPTAKE INHIBITORS AND POTASSIUM CHANNEL ACTIVATORS” (priority 2006, published 2009)
Where a name gives a salt, the structure may show the parent alone.

How the values were obtained:
SK3 channels = SK3 channels (Homo sapiens, UniProt Q9UGI6); assay: inhibition of SK3 channels in patchclamp electrophysiology (selectivity over monoamine reuptake in vitro); assay type: cell-based; conditions: patchclamp electrophysiology vs [3H]DA, [3H]5-HT and [3H]NA reuptake in vitro
NMRI mice [1] = assay: nialamide induced 5-HT syndrome paradigm; assay type: in vivo; conditions: nialamide 50 mg/kg s.c. at -120 min, test compound 0.3-3 mg/kg i.p. combined with sub-threshold citalopram 1 mg/kg p.o. at 0 min
Description: Method: Mice were administered nialamide (50 mg/kg, s.c., −120 min) followed by the test compound (0.3-3 mg/kg, i.p.) and citalopram (1 mg/kg, p.o) at time-point 0 min. The presence of head twitches, hindlimb abduction, head weaving, and piano playing behaviours were then scored by a trained observer using a recognised rating scale: maximum score/mouse=4, minimum score/mouse=0.

NMRI mice [2] = assay: reversal of tetrabenazine-induced ptosis; assay type: in vivo; conditions: test compound 0.3-3 mg/kg i.p. combined with sub-threshold reboxetine 0.1 mg/kg p.o. at -60 min, tetrabenazine 40 mg/kg i.p. at -30 min
Description: Method: Mice were administered the test compound (0.3-3 mg/kg, i.p.) and reboxetine (0.1 mg/kg, p.o.) at timepoint −60 min, followed by tetrabenazine (40 mg/kg, i.p., −30 min). The presence of ptosis was then scored by a trained observer using a recognised rating scale: maximum score/mouse=4, minimum score/mouse=0.

Compound | melting point | other results
Fc1ccc(C(c2ccc(F)cc2)N2CCN(c3nc4ccccc4[nH]3)CC2)cc1 (as salt: hydrochloride) [Example 9, 2-{4-[Bis-(4-fluorophenyl)methyl]piperazin-1-yl}-1H-benzoimidazole] | > 240 °C (dec.) | –
Clc1ccc(OC2CCN(c3nc4ccccc4[nH]3)CC2)cc1Cl (as salt: hydrochloride) [Example 10, 2-[4-(3,4-Dichlorophenoxy)piperidin-1-yl]-1H-benzoimidazole] | 297 to 298 °C | –
Clc1ccc(CC2CCN(c3nc4ccccc4[nH]3)CC2)cc1Cl (as salt: salt) [Example 1, 2-[4-(3,4-Dichlorobenzyl)piperidin-1-yl]-1H-benzoimidazole] | 268 to 270 °C | –
c1ccc(CC2CCN(c3nc4ccccc4[nH]3)CC2)cc1 [Example 2, 2-(4-Benzylpiperidin-1-yl)-1H-benzoimidazole] | 193 to 194 °C | –
OC(c1ccccc1)(c1ccccc1)C1CCN(c2nc3ccccc3[nH]2)CC1 [Example 3, [1(1H-Benzoimidazol-2-yl)-piperidin-4-yl]diphenylmethanol] | 237 to 239 °C | –
FC(F)(F)c1cc(Cn2c(N3CCC(Cc4ccccc4)CC3)nc3ccccc32)ccc1Cl [Example 4, 2-(4-Benzylpiperidin-1-yl)-1-[4-chloro-3-(trifluoromethyl)benzyl]-1H-benzoimidazole] | 124 to 125.5 °C | –
Fc1ccc(Cn2c(N3CCC(Cc4ccccc4)CC3)nc3ccccc32)cc1F [Example 5, 2-(4-Benzylpiperidin-1-yl)-1-(3,4-difluorobenzyl)-1H-benzoimidazole] | 155 to 155.5 °C | –
c1ccc(C(c2ccccc2)N2CCN(c3nc4ccccc4[nH]3)CC2)cc1 [Example 6, 2-(4-Benzhydrylpiperazin-1-yl)-1H-benzoimidazole] | > 230 °C (dec.) | –
c1ccc(C(=C2CCN(c3nc4ccccc4[nH]3)CC2)c2ccccc2)cc1 [Example 12, 2-(4-Benzhydrylidene-piperidin-1-yl)-1H-benzoimidazole] | 229 to 230 °C | –
c1ccc(C(c2ccccc2)C2CCN(c3nc4ccccc4[nH]3)CC2)cc1 [Example 13, 2-(4-Benzhydryl-piperidin-1-yl)-1H-benzoimidazole] | 256 to 258 °C | –
N=c1n(Cc2ccc(F)c(F)c2)c2ccccc2n1Cc1ccc(F)c(F)c1 [test compound, 1,3-Bis-(3,4-difluoro-benzyl)-1,3-dihydro-benzoimidazol-2-ylideneamine] | – | selectivity for inhibition of SK3 channels over inhibiton of [3H]DA, [3H]5-HT and [3H]NA reuptake (SK3 channels): more than 100 fold; effect on ability of citalopram to induce symptoms analagous to the serotonin syndrome (5-HT syndrome score) (NMRI mice [1]): enhanced the ability of the latter to induce symptoms analagous to the serotonin syndrome; effect on ability of reboxetine to reverse tetrabenazine-induced ptosis (ptosis score) (NMRI mice [2]): enhanced the ability of the latter to reverse tetrabenazine-incuced ptosis
